From US8937092B2, “Aryl or N-heteroaryl substituted methanesulfonamide derivatives as vanilloid receptor ligands” (Gruenenthal GmbH, priority 2011, dated 2015)

Target: vanilloid receptor 1 (VR1/TRPV1 receptor) (Homo sapiens, UniProt Q8NER1)
Assay: Functional FLIPR Ca2+ influx assay on vanilloid receptor 1, capsaicin (Cap) stimulus
Format: cell-based
Settings: Ki from IC50 by Cheng-Prusoff, read-out: (f) Ki (human being) [nM], Cap
Description: Furthermore, preference may be given to compounds according to the invention that cause a 50 percent displacement of capsaicin, which is present at a concentration of 100 nM, in a FLIPR assay with CHO K1 cells which were transfected with the human VR1 gene at a concentration of less than 2,000 nM, preferably less than 1,000 nM, particularly preferably less than 300 nM, most particularly preferably less than 100 nM, even more preferably less than 75 nM, additionally preferably less than 50 nM, most preferably less than 10 nM.
In the process, the Ca^2+ influx is quantified in the FLIPR assay with the aid of a Ca^2+-sensitive dye (type Fluo-4, Molecular Probes Europe BV, Leiden, the Netherlands) in a fluorescent imaging plate reader (FLIPR, Molecular Devices, Sunnyvale, USA), as described hereinafter.
Pharmacological Methods I. Functional Testing Carried Out on the Vanilloid Receptor 1 (VRI/TRPV1 Receptor) […]
The number of cells in the suspension is set to 3×10^5 per mL and 150 μL of this suspension are in each case introduced into a recess in the cell culture plates coated as described hereinbefore. In the incubator the plates are left for two to three days at 37° C., 5% by volume of CO2 and 95% relative humidity. Subsequently, the cells are loaded with 2 μM of Fluo-4 and 0.01% by volume of Pluronic F127 (Molecular Probes Europe BV, Leiden, the Netherlands) in HBSS buffer (Hank's buffered saline solution, Gibco Invitrogen GmbH, Karlsruhe, Germany) for 30 min at 37° C., washed 3 times with HBSS buffer and after further incubation for 15 minutes at room temperature used for Ca^2+ measurement in a FLIPR assay. The Ca^2+-dependent fluorescence is in this case measured before and after the addition of substances (λex=488 nm, λem=540 nm). Quantification is carried out by measuring the highest fluorescence intensity (FC, fluorescence counts) over time.
The FLIPR protocol consists of 2 substance additions. First the compounds to be tested (10 μM) are pipetted onto the cells and the Ca^2+ influx is compared with the control (capsaicin 10 μM). This provides the result in % activation based on the Ca^2+ signal after the addition of 10 μM of capsaicin (CP). After 5 minutes' incubation, 100 nM of capsaicin are applied and the Ca^2+ influx is also determined.
Desensitising agonists and antagonists lead to suppression of the Ca^2+ influx. The % inhibition is calculated compared to the maximum achievable inhibition with 10 μM of capsazepine.
Triple analyses (n=3) are carried out and repeated in at least 3 independent experiments (N=4).
Starting from the percentage displacement caused by different concentrations of the compounds to be tested of general formula I, IC50 inhibitory concentrations which cause a 50-percent displacement of capsaicin were calculated. K, values for the test substances were obtained by conversion by means of the Cheng-Prusoff equation (Cheng, Prusoff; Biochem. Pharmacol. 22, 3099-3108, 1973).
The affinity of the compounds according to the invention for the vanilloid receptor 1 (VR1/TRPV1 receptor) was determined as described herein before (pharmacological method I).
The value after the “@” symbol indicates the concentration at which the inhibition (as a percentage) was respectively determined.

Compound	Ki
2-(3-methyl-4-(methylsulfonamidomethyl)phenyl)-N-((2-m-tolyl-6-(trifluoromethyl)pyridin-3-yl)methyl)propanamide [Example 97]	4 nM
Cc1cccc(-c2nc(C(F)(F)F)ccc2CNC(=O)Nc2ccc(CNS(C)(=O)=O)cc2)c1 [Example 2, N-(4-(3-((2-m-tolyl-6-(trifluoromethyl)pyridin-3-yl)methyl)ureido)benzyl)methanesulfonamide]	10 nM
Cc1cccc(-c2nc(C(F)(F)F)ccc2CNC(=O)C(C)c2ccc(CNS(C)(=O)=O)cc2)c1 (stereo not shown) [Example 4, 2-(4-(methylsulfonamidomethyl)phenyl)-N-((2-m-tolyl-6-(trifluoromethyl)pyridin-3-yl)methyl)propanamide]	66 nM
CC(C(=O)NCc1ccc(C(F)(F)F)nc1-c1ccccc1)c1ccc(CNS(C)(=O)=O)c(F)c1 (stereo not shown) [Example 5, 2-(3-fluoro-4-(methylsulfonamidomethyl)phenyl)-N-((2-phenyl-6-(trifluoromethyl)pyridin-3-yl)methyl)propanamide]	31 nM
CC(C(=O)NCc1ccc(C(F)(F)F)nc1-c1cccc(F)c1)c1ccc(CNS(C)(=O)=O)c(F)c1 (stereo not shown) [Example 7, 2-(3-fluoro-4-(methylsulfonamidomethyl)phenyl)-N-((2-(3-fluorophenyl)-6-(trifluoromethyl)pyridin-3-yl)methyl)propanamide]	61 nM
CC(C(=O)NCc1ccc(C(F)(F)F)nc1-c1ccc(F)cc1)c1ccc(CNS(C)(=O)=O)c(F)c1 (stereo not shown) [Example 8, 2-(3-fluoro-4-(methylsulfonamidomethyl)phenyl)-N-((2-(4-fluorophenyl)-6-(trifluoromethyl)pyridin-3-yl)methyl)propanamide]	66 nM
CC(C(=O)NCc1ccc(C(F)(F)F)nc1-c1cccc(F)c1F)c1ccc(CNS(C)(=O)=O)c(F)c1 (stereo not shown) [Example 9, N-((2-(2,3-difluorophenyl)-6-(trifluoromethyl)pyridin-3-yl)methyl)-2-(3-fluoro-4-(methylsulfonamidomethyl)phenyl)propanamide]	47 nM
CC(C(=O)NCc1ccc(C(F)(F)F)nc1-c1ccc(F)c(F)c1)c1ccc(CNS(C)(=O)=O)c(F)c1 (stereo not shown) [Example 10, N-((2-(3,4-difluorophenyl)-6-(trifluoromethyl)pyridin-3-yl)methyl)-2-(3-fluoro-4-(methylsulfonamidomethyl)phenyl)propanamide]	17 nM
CC(C(=O)NCc1ccc(C(F)(F)F)nc1-c1cc(F)cc(F)c1)c1ccc(CNS(C)(=O)=O)c(F)c1 (stereo not shown) [Example 11, N-((2-(3,5-difluorophenyl)-6-(trifluoromethyl)pyridin-3-yl)methyl)-2-(3-fluoro-4-(methylsulfonamidomethyl)phenyl)propanamide]	41 nM
CC(C(=O)NCc1ccc(C(F)(F)F)nc1-c1cc(F)ccc1F)c1ccc(CNS(C)(=O)=O)c(F)c1 (stereo not shown) [Example 12, N-((2-(2,5-difluorophenyl)-6-(trifluoromethyl)pyridin-3-yl)methyl)-2-(3-fluoro-4-(methylsulfonamidomethyl)phenyl)propanamide]	42 nM
Cc1ccc(-c2nc(C(F)(F)F)ccc2CNC(=O)C(C)c2ccc(CNS(C)(=O)=O)c(F)c2)cc1F (stereo not shown) [Example 13, 2-(3-fluoro-4-(methylsulfonamidomethyl)phenyl)-N-((2-(3-fluoro-4-methylphenyl)-6-(trifluoromethyl)pyridin-3-yl)methyl)propanamide]	26 nM
COc1ccc(-c2nc(C(F)(F)F)ccc2CNC(=O)C(C)c2ccc(CNS(C)(=O)=O)c(F)c2)cc1F (stereo not shown) [Example 14, 2-(3-fluoro-4-(methylsulfonamidomethyl)phenyl)-N-((2-(3-fluoro-4-methoxyphenyl)-6-(trifluoromethyl)pyridin-3-yl)methyl)propanamide]	68 nM
CC(C(=O)NCc1ccc(C(F)(F)F)nc1-c1cccc(Cl)c1)c1ccc(CNS(C)(=O)=O)c(F)c1 (stereo not shown) [Example 15, N-((2-(3-chlorophenyl)-6-(trifluoromethyl)pyridin-3-yl)methyl)-2-(3-fluoro-4-(methylsulfonamidomethyl)phenyl)propanamide]	10 nM
CC(C(=O)NCc1ccc(C(F)(F)F)nc1-c1ccc(F)c(Cl)c1)c1ccc(CNS(C)(=O)=O)c(F)c1 (stereo not shown) [Example 16, N-((2-(3-chloro-4-fluorophenyl)-6-(trifluoromethyl)pyridin-3-yl)methyl)-2-(3-fluoro-4-(methylsulfonamidomethyl)phenyl)propanamide]	5 nM
C[C@H](C(=O)NCc1ccc(C(F)(F)F)nc1-c1ccc(F)c(Cl)c1)c1ccc(CNS(C)(=O)=O)c(F)c1 [Example 17, (S)—N-((2-(3-chloro-4-fluorophenyl)-6-(trifluoromethyl)pyridin-3-yl)methyl)-2-(3-fluoro-4-(methylsulfonamidomethyl)phenyl)propanamide]	4 nM
Cc1cccc(-c2nc(C3CC3)ccc2CNC(=O)C(C)c2ccc(CNS(C)(=O)=O)c(F)c2)c1 (stereo not shown) [Example 20, N-((6-cyclopropyl-2-m-tolylpyridin-3-yl)methyl)-2-(3-fluoro-4-(methylsulfonamidomethyl)phenyl)propanamide]	45 nM
Cc1cccc(-c2cc(C(C)(C)C)ccc2CNC(=O)C(C)c2ccc(CNS(C)(=O)=O)c(F)c2)c1 (stereo not shown) [Example 21, N-((5-tert-butyl-3′-methylbiphenyl-2-yl)methyl)-2-(3-fluoro-4-(methylsulfonamidomethyl)phenyl)propanamide]	37 nM
Cc1cccc(-c2cc(C(F)(F)F)ccc2CNC(=O)C(C)c2ccc(CNS(C)(=O)=O)c(F)c2)c1 (stereo not shown) [Example 22, 2-(3-fluoro-4-(methylsulfonamidomethyl)phenyl)-N-((3′-methyl-5-(trifluoromethyl)biphenyl-2-yl)methyl)propanamide]	23 nM
Cc1cccc(-c2nc(C(C)(C)C)ccc2CNC(=O)C(C)c2ccc(CNS(C)(=O)=O)c(F)c2)c1 (stereo not shown) [Example 23, N-((6-tert-butyl-2-m-tolylpyridin-3-yl)methyl)-2-(3-fluoro-4-(methylsulfonamidomethyl)phenyl)propanamide]	24 nM
Cc1cccc(-c2nc(C(F)(F)F)ccc2CNC(=O)C(C)c2ccc(CNS(C)(=O)=O)c(F)c2)c1 (stereo not shown) [Example 24, 2-(3-fluoro-4-(methylsulfonamidomethyl)phenyl)-N-((2-m-tolyl-6-(trifluoromethyl)pyridin-3-yl)methyl)propanamide]	6 nM
Cc1cccc(-c2nc(C(F)(F)F)ccc2CNC(=O)[C@@H](C)c2ccc(CNS(C)(=O)=O)c(F)c2)c1 [Example 25, (S)-2-(3-fluoro-4-(methylsulfonamidomethyl)phenyl)-N-((2-m-tolyl-6-(trifluoromethyl)pyridin-3-yl)methyl)propanamide]	15 nM

Same assay, conditions: inhibition at 1 μM, read-out: (f) inhibition (human being), Cap, @1 μM

Compound	inhibition at 1 µM
Cc1ccccc1-c1nc(C(F)(F)F)ccc1CNC(=O)C(C)c1ccc(CNS(C)(=O)=O)c(F)c1 (stereo not shown) [Example 19, 2-(3-fluoro-4-(methylsulfonamidomethyl)phenyl)-N-((2-o-tolyl-6-(trifluoromethyl)pyridin-3-yl)methyl)propanamide]	18%

Same assay, conditions: inhibition at 5 μM, read-out: (f) inhibition (human being), Cap, @5 μM

Compound	inhibition at 5 µM
Cc1cccc(-c2nc(C(F)(F)F)ccc2CNC(=O)C(C)c2cccc(CNS(C)(=O)=O)c2)c1 (stereo not shown) [Example 1, 2-(3-(methylsulfonamidomethyl)phenyl)-N-((2-m-tolyl-6-(trifluoromethyl)pyridin-3-yl)methyl)propanamide]	44%
CC(C(=O)NCc1ccc(C(F)(F)F)nc1-c1ccccc1F)c1ccc(CNS(C)(=O)=O)c(F)c1 (stereo not shown) [Example 6, 2-(3-fluoro-4-(methylsulfonamidomethyl)phenyl)-N-((2-(2-fluorophenyl)-6-(trifluoromethyl)pyridin-3-yl)methyl)propanamide]	37%
C[C@@H](C(=O)NCc1ccc(C(F)(F)F)nc1-c1ccc(F)c(Cl)c1)c1ccc(CNS(C)(=O)=O)c(F)c1 [Example 18, (R)—N-((2-(3-chloro-4-fluorophenyl)-6-(trifluoromethyl)pyridin-3-yl)methyl)-2-(3-fluoro-4-(methylsulfonamidomethyl)phenyl)propanamide]	42%
